Laboratory results as given in patent publication EP4692072A1, “PHOTOCHROMIC COMPOUND, PROPARGYL ALCOHOL COMPOUND, CURABLE COMPOSITION, OPTICAL ARTICLE, LENS, AND SPECTACLES” (TOKUYAMA CORPORATION, priority 2023, dated 2024).

Key:
[1] = Photochromic properties of binder sheet (photochromic layer prepared by binder method); format: physicochemical; settings: 0.25 mmol per 100 parts by mass resin; for A23: 23°C color optical density ε(300)-ε(0); for Maximum absorption wavelength: urethaneurea resin binder sheet, after color development
Protocol: (§1) • [1] Maximum Absorption Wavelength (λmax): The maximum absorption wavelength after color development, measured using a spectrophotometer (instantaneous multichannel photodetector MCPD3000) manufactured by Otsuka Electronics Co., Ltd. was used as an indicator for the color tone during the color development. • [2] 23°C Color Optical Density (A23): A difference between an absorbancy measured after light irradiation at 23°C for 300 seconds {ε(300)} and an absorbancy without light irradiation ε(0) at the maximum absorption wavelength was used as an indicator for the color optical density. […] 23°C color fading half-life [τ1/2 (sec.)]: A time required for the absorbancy of the sample at the maximum absorption wavelength to decrease to 1/2 of {ε(300)-ε(0)} when the light irradiation was terminated after the light irradiation at 23°C for 300 seconds, was used as an indicator for the color fading speed. The shorter this time, the higher the color fading speed. • [4] Residual rate (A120/A0×100): The obtained photochromic plastic lens was subjected to accelerated deterioration using a xenon weather meter X25 manufactured by Suga Test Instruments Co., Ltd. for 120 hours. Subsequently, the color optical density was evaluated before and after the test, then a color optical density before the test (A0) and a color optical density after the test (A120) were measured, and a ratio (A120/A0) was defined as a residual rate. The residual rate was used as an indicator for a color developing durability. The higher the residual rate, the higher the color developing durability. The results of Examples 26, 50, and Comparative Examples 1 to 8 are summarized in Table 1, and the results of Examples 27 to 49 are summarized in Tables 2 and 3.
(§2) A binder sheet was prepared using the following method. The binder sheet consisted of a first optical sheet, a first adhesive layer, a photochromic layer, a second adhesive layer, and a second optical sheet, which are laminated in this order. The first optical sheet and the second optical sheet were made of a polycarbonate sheet with a thickness of 400 µm.
(§3) A 2L four-necked flask equipped with agitation blades, a cooling tube, a thermometer, and a nitrogen gas introducing tube was charged with 315 parts by mass of polycarbonate diol having a number-average molecular weight of 1000, 100 parts by mass of isophorone diisocyanate, and 72 parts by mass of toluene, and the mixture was reacted under nitrogen atmosphere at 100°C for 7 hours to synthesize a urethane prepolymer having an isocyanate group on its terminal. After completion of the urethane prepolymer reaction, the reaction liquid was cooled to approximately 0°C, then dissolved in 205 parts by mass of t-butyl alcohol and 382 parts by mass of diethyl ketone, and then the liquid temperature was maintained at 0°C. Subsequently, into this reaction liquid, a mixture of 21.3 parts by mass of bis-(4-aminocyclohexyl)methane as a chain extender and 20 parts by mass of diethyl ketone was dripped over within 30 minutes, and the mixture was reacted at 0°C for 1 hour. Then, into the mixture, 8.1 parts by mass of 1,2,2,6,6-pentamethyl-4-aminopiperidine was dripped, and the mixture was reacted at 0°C for 1 hour to obtain a diethyl ketone solution of a terminal non-reactive urethaneurea resin.
(§4) To 100 parts by mass of the obtained terminal non-reactive urethaneurea resin solution, the photochromic compound in Example 1 (represented by formula (28) above), 6.3 parts by mass of 4,4'-methylenebis(cyclohexyl isocyanate) isomer mixture (polyisocyanate compound), furthermore 0.4 part by mass of ethylene bis(oxyethylene)bis[3-(5-tert-butyl-4-hydroxy-m-tolyl)propionate] as an antioxidant, and 0.06 part by mass of DOW CORNING TORAY L-7001 as a surfactant were added, and the mixture was stirred and mixed at room temperature to obtain a photochromic layer forming composition. […]

[2] = Accelerated deterioration (xenon weather meter X25, 120 hours) of binder sheet prepared by binder method; format: physicochemical; settings: 0.25 mmol per 100 parts by mass resin, A120/A0×100 after 120 hours xenon weather meter
Protocol: as §1, §2, §3, §4

COCCCCC1(CCCCOC)c2cc(Sc3c(C)cccc3C)ccc2-c2c1c1c(c3cc(OC)ccc23)OC(c2ccc(OC)cc2)(c2ccc(N(C)c3ccc(OC)cc3)cc2)C=C1 (centres unmarked) [Example 11]
A23 [1]: 0.51 - | A23 ([1]; listed as Formula (65)): 0.97 - | Maximum absorption wavelength [1]: 479 nm | Maximum absorption wavelength ([1]; listed as Formula (65)): 612 nm | Residual rate [2]: 90% | Residual rate ([2]; listed as Formula (65)): 89%

COc1ccc(C2(c3ccc(N(C)c4ccccc4)cc3)C=Cc3c4c(c5cc(-c6ccc(N7CCOCC7)cc6)c(OC)cc5c3O2)-c2ccccc2C4(C)C)cc1 (centres unmarked) [Example 1]
A23 [1]: 0.97 - | A23 ([1]; listed as Formula (37)): 1.06 - | Maximum absorption wavelength [1]: 502 nm | Maximum absorption wavelength ([1]; listed as Formula (37)): 603 nm | Residual rate [2]: 89% | Residual rate ([2]; listed as Formula (37)): 90%

CCN(c1ccc(OC)cc1)c1ccc(C2(c3ccc(OC)cc3)C=Cc3c4c(c5cc(-c6ccc(N7CCOCC7)cc6)c(OC)cc5c3O2)-c2ccccc2C4(C)C)cc1 (centres unmarked) [Example 25]
A23 [1]: 0.88 - | A23 ([1]; listed as Formula (88)): 0.97 - | Maximum absorption wavelength [1]: 505 nm | Maximum absorption wavelength ([1]; listed as Formula (88)): 606 nm | Residual rate [2]: 87%

COc1ccc(N(C)c2ccc(C3(c4ccc(CCO[Si](C)(C)CC[Si](O[Si](C)(C)C)(O[Si](C)(C)C)O[Si](C)(C)C)cc4)C=Cc4c5c(c6cc(N(C)c7ccccc7)c(OC)cc6c4O3)-c3ccc(C(F)(F)F)cc3C53CCC(C)(C)CC3)cc2)cc1 (centres unmarked) [Example 60]
A23 [1]: 0.84 - | A23 ([1]; listed as Formula (121)): 0.87 - | Maximum absorption wavelength [1]: 524 nm | Maximum absorption wavelength ([1]; listed as Formula (121)): 582 nm | Residual rate [2]: 88% | Residual rate ([2]; listed as Formula (121)): 89%

CCCC1(CCC)c2ccccc2-c2c1c1c(c3cc(OC)c(-c4ccc(OC)cc4OC)cc23)OC(c2ccc(C)cc2)(c2ccc(N(C)c3ccccc3)cc2)C=C1 (centres unmarked) [Example 19]
A23 [1]: 0.88 - | A23 ([1]; listed as Formula (80)): 1.14 - | Maximum absorption wavelength [1]: 492 nm | Maximum absorption wavelength ([1]; listed as Formula (80)): 604 nm | Residual rate [2]: 91%

CCCC1(CCC)c2cc(OC(F)(F)F)ccc2-c2c1c1c(c3cc(OC)c(Sc4c(C)cccc4C)cc23)OC(c2ccc(N(C)c3ccccc3)cc2)(c2ccc(OC)c(OC)c2)C=C1 (centres unmarked) [Example 57]
A23 [1]: 0.85 - | A23 ([1]; listed as Formula (110)): 0.87 - | Maximum absorption wavelength [1]: 493 nm | Maximum absorption wavelength ([1]; listed as Formula (110)): 618 nm | Residual rate [2]: 91% | Residual rate ([2]; listed as Formula (110)): 90%

COCCC1(CCOC)c2ccccc2-c2c1c1c(c3cc(OC)c(-c4ccc(N(c5ccccc5)c5ccccc5)cc4)cc23)OC(c2ccc(Oc3ccccc3)cc2)(c2ccc(N(C)c3ccccc3)cc2)C=C1 (centres unmarked) [Example 23]
A23 [1]: 1.02 - | A23 ([1]; listed as Formula (85)): 1.06 - | Maximum absorption wavelength [1]: 506 nm | Maximum absorption wavelength ([1]; listed as Formula (85)): 609 nm | Residual rate [2]: 89%

CCCCN(c1ccccc1)c1ccc(C2(c3ccc(C)cc3)C=Cc3c4c(c5cc(N6CCOCC6)c(OC)cc5c3O2)-c2ccccc2C4(CC)CC)cc1 (centres unmarked) [Example 10]
A23 [1]: 1.35 - | A23 ([1]; listed as Formula (62)): 1.12 - | Maximum absorption wavelength [1]: 516 nm | Maximum absorption wavelength ([1]; listed as Formula (62)): 594 nm | Residual rate [2]: 91%

CCCCOCCC1(CCOCCCC)c2ccccc2-c2c1c1c(c3cc(OC)c(NC(=O)c4ccccc4)cc23)OC(c2ccc(N(C)c3ccccc3)cc2)(c2ccc(OC)c(F)c2)C=C1 (centres unmarked) [Example 53]
A23 [1]: 0.75 - | A23 ([1]; listed as Formula (95)): 0.96 - | Maximum absorption wavelength [1]: 502 nm | Maximum absorption wavelength ([1]; listed as Formula (95)): 607 nm | Residual rate [2]: 87% | Residual rate ([2]; listed as Formula (95)): 89%
